Consider 37 molecules from patent US20250171438A1 (Agios Pharmaceuticals, Inc., priority 2022, published 2025).

The structures appear in SMILES notation. Where two headings read alike, the source gives them in different places. Where only a bound is given, the exact number is not on record here.

The experiment addresses T1, human PAH with the R408W mutation (Homo sapiens, UniProt P00439, R408W).
T1 construct: expressed in transfected cells
T1 sequence (P00439 1-452 R408W): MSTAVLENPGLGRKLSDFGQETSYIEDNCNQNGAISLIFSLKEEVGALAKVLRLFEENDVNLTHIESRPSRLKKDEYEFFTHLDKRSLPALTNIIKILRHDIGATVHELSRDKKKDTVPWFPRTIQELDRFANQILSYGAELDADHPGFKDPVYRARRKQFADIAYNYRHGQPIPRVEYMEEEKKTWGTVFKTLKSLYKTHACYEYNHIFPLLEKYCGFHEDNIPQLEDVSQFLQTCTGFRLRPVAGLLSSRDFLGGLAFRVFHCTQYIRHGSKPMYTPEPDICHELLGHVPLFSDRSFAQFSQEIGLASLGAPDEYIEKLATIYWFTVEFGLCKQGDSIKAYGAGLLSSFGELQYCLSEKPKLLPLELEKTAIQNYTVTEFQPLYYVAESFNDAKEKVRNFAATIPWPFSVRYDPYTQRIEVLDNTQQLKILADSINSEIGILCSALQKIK
In words: Cell Based Phenylalanine Flux Assay. The note with it: A375 cells expressing human R408W PAH, 13C-Tyrosine by LC-MS, average where tested multiple times, read-out: AC50.

Consider `Cc1nc(C2(O)CC2)oc1C(=O)N1CCc2[nH]cnc2[C@@H]1c1nc2c(F)cccc2s1` [Example 1950, (R)-(4-(4-fluorobenzo[d]thiazol-2-yl)-6,7-dihydro-1H-imidazo[4,5-c]pyridin-5(4H)-yl)(2-(1-hydroxycyclopropyl)-4-methyloxazol-5-yl)methanone], for which the AC50 (24 hrs compound incubation) is > 5 µM.

For the molecule `O=C(N1CCc2[nH]cnc2[C@H]1c1nc2ccccc2s1)C1(c2cnco2)CC1` [Example 1629], the AC50 (24 hrs compound incubation) is 0.5 to 1 µM. For the molecule `Cn1cc(C(=O)N2CCc3[nH]cnc3[C@H]2c2nc3c(F)cccc3s2)c(C(F)(F)F)n1` [Example 1613, (S)-(4-(4-fluorobenzo[d]thiazol-2-yl)-6,7-dihydro-1H-imidazo[4,5-c]pyridin-5(4H)-yl)(1-methyl-3-(trifluoromethyl)-1H-pyrazol-4-yl)methanone], the AC50 (24 hrs compound incubation) was < 0.5 µM. Consider `O=C(c1cnn2c(Br)cccc12)N1CCc2[nH]cnc2C1c1nc2ccccc2[nH]1` (stereo not shown), for which, where the note is “24 hrs with compound”, the AC50 lay in the range of 1 to 5 µM. With `Cn1cc(-c2cnc(CC(=O)N3CCc4[nH]cnc4C3c3nc4ccccc4s3)s2)cn1` (stereo not shown), the AC50 (24 hrs with compound) was > 5 µM. In the case of `O=C(c1cncs1)N1CCc2[nH]cnc2[C@@H]1c1nc2cccc(F)c2s1` [Example 1234, (R)-(4-(7-fluorobenzo[d]thiazol-2-yl)-6,7-dihydro-1H-imidazo[4,5-c]pyridin-5(4H)-yl)(thiazol-5-yl)methanone], the AC50 (24 hrs compound incubation) lay within 1 to 5 µM. The same measure, in the same setting: the same measure for `O=C(c1cnsc1)N1CCc2[nH]cnc2[C@H]1c1nc2ccccc2s1` [Example 1061]: 0.5 to 1 µM. On to `Cn1cc(-c2nnc(C(=O)N3CCc4[nH]cnc4[C@@H]3c3nc4ccccc4s3)o2)c(C(F)(F)F)n1` [Example 1884, (R)-(4-(benzo[d]thiazol-2-yl)-6,7-dihydro-1H-imidazo[4,5-c]pyridin-5(4H)-yl)(5-(1-methyl-3-(trifluoromethyl)-1H-pyrazol-4-yl)-1,3,4-oxadiazol-2-yl)methanone], for which the AC50 (24 hrs compound incubation) is 1 to 5 µM.

Turning to `Cc1nc(C2(O)CC2)oc1C(=O)N1CCc2[nH]cnc2[C@H]1c1nc2c(F)cccc2s1` [Example 1949, (S)-(4-(4-fluorobenzo[d]thiazol-2-yl)-6,7-dihydro-1H-imidazo[4,5-c]pyridin-5(4H)-yl)(2-(1-hydroxycyclopropyl)-4-methyloxazol-5-yl)methanone], for the setting “24 hrs compound incubation”, the AC50 is 0.5 to 1 µM. For the molecule `O=C(C1CC1)N1CCc2[nH]cnc2[C@H]1c1nc2ccccc2s1` [Example 1073], the AC50 (24 hrs compound incubation) was 1 to 5 µM.

Regarding `CC(C)(O)c1nc(C#N)c(C(=O)N2CCc3[nH]cnc3[C@@H]2c2nc3ccccc3s2)o1` [Example 1698, (R)-5-(4-(benzo[d]thiazol-2-yl)-4,5,6,7-tetrahydro-1H-imidazo[4,5-c]pyridine-5-carbonyl)-2-(2-hydroxypropan-2-yl)oxazole-4-carbonitrile], for the setting “24 hrs compound incubation”, the AC50 was > 5 µM. Take `O=C(c1nncn1C1CC1)N1CCc2[nH]cnc2[C@@H]1c1nc2c(F)cccc2s1` [Example 2083, (R)-(4-cyclopropyl-4H-1,2,4-triazol-3-yl)(4-(4-fluorobenzo[d]thiazol-2-yl)-6,7-dihydro-1H-imidazo[4,5-c]pyridin-5(4H)-yl)methanone]: under “24 hrs compound incubation”, the AC50 is 1 to 5 µM. On to `O=C(CC1CC1)N1CCc2[nH]cnc2[C@@H]1c1nc2ccccc2[nH]1` [Example 1000, (R)-1-(4-(1H-benzo[d]imidazol-2-yl)-6,7-dihydro-1H-imidazo[4,5-c]pyridin-5(4H)-yl)-2-cyclopropylethanone], for which the AC50 (24 hrs compound incubation) was 1 to 5 µM. Same read-out and setting: the same measure for `CN(C)CCc1nc(C(F)(F)F)c(C(=O)N2CCc3[nH]cnc3[C@H]2c2nc3ccccc3s2)o1` [Example 1581]: < 0.5 µM; for `O=C(c1oc(-c2ccccn2)nc1Br)N1CCc2[nH]cnc2[C@H]1c1nc2ccccc2s1` [Example 1850]: < 0.5 µM; for `O=C(c1ncc(Cl)s1)N1CCc2[nH]cnc2[C@@H]1c1nc2ccccc2s1` [Example 1054, (R)-(4-(benzo[d]thiazol-2-yl)-6,7-dihydro-1H-imidazo[4,5-c]pyridin-5(4H)-yl)(5-chlorothiazol-2-yl)methanone]: 1 to 5 µM. Still for that read-out and setting: the value for `O=C(c1nnc(-c2ccccn2)o1)N1CCc2[nH]cnc2[C@H]1c1nc2cccc(F)c2s1` [Example 1718, (S)-(4-(7-fluorobenzo[d]thiazol-2-yl)-6,7-dihydro-1H-imidazo[4,5-c]pyridin-5(4H)-yl)(5-(pyridin-2-yl)-1,3,4-oxadiazol-2-yl)methanone] was < 0.5 µM. As for `O=C(c1cncs1)N1CCc2[nH]cnc2[C@H]1c1nc2c(F)cccc2s1` [Example 1217, (S)-(4-(4-fluorobenzo[d]thiazol-2-yl)-6,7-dihydro-1H-imidazo[4,5-c]pyridin-5(4H)-yl)(thiazol-5-yl)methanone], the AC50 (24 hrs compound incubation) lay in the range of 0.5 to 1 µM.

In the case of `O=C(c1cnn2cc(F)ccc12)N1CCc2[nH]cnc2C1c1nc2ccc(F)cc2s1` (stereo not shown), the AC50 (24 hrs with compound) fell in the range of 1 to 5 µM.

Turning to `Cc1nnc(C(=O)N2CCc3[nH]cnc3C2c2nc3ccc(F)cc3s2)s1` (stereo not shown), the AC50 (24 hrs with compound) is 1 to 5 µM. Take `O=C(c1cn(CC2CC2)nc1Cl)N1CCc2[nH]cnc2[C@@H]1c1nc2c(F)cccc2s1` [Example 1984, (R)-(3-chloro-1-(cyclopropylmethyl)-1H-pyrazol-4-yl)(4-(4-fluorobenzo[d]thiazol-2-yl)-6,7-dihydro-1H-imidazo[4,5-c]pyridin-5(4H)-yl)methanone]: the AC50 (24 hrs compound incubation) lay in the range of 1 to 5 µM. `Cn1cc(C(=O)N2CCc3[nH]cnc3[C@H]2c2nc3c(F)cccc3s2)c(C(F)F)n1` [Example 1841, (S)-(3-(difluoromethyl)-1-methyl-1H-pyrazol-4-yl)(4-(4-fluorobenzo[d]thiazol-2-yl)-6,7-dihydro-1H-imidazo[4,5-c]pyridin-5(4H)-yl)methanone]: for the setting “24 hrs compound incubation”, the AC50 is < 0.5 µM. For the molecule `O=C(c1nnc(-c2ccccn2)o1)N1CCc2[nH]cnc2[C@@H]1c1nc2cc(F)ccc2s1` [Example 1747, (R)-(4-(5-fluorobenzo[d]thiazol-2-yl)-6,7-dihydro-1H-imidazo[4,5-c]pyridin-5(4H)-yl)(5-(pyridin-2-yl)-1,3,4-oxadiazol-2-yl)methanone], the AC50 (24 hrs compound incubation) was 0.5 to 1 µM. `CC1CN(C(=O)c2cnn3cc(CN(C)C)ccc23)C(c2nc3ccccc3s2)c2nc[nH]c21` (stereo not shown): the AC50 (24 hrs with compound) was > 5 µM. Consider `O=C(c1cnn2cccc(F)c12)N1CCc2[nH]cnc2[C@H]1c1nc2ccccc2[nH]1` [(S)-(4-(1H-benzo[d]imidazol-2-yl)-1,4,6,7-tetrahydro-5H-imidazo[4,5-c]pyridin-5-yl)(4-fluoropyrazolo[1,5-a]pyridin-3-yl)methanone], for which the AC50 (24 hrs with compound) fell in the range of 1 to 5 µM. Consider `O=C(CC1CC1)N1CCc2[nH]cnc2[C@@H]1c1nc2ccc(Cl)cc2[nH]1` [Example 953, (R)-1-(4-(6-chloro-1H-benzo[d]imidazol-2-yl)-6,7-dihydro-1H-imidazo[4,5-c]pyridin-5(4H)-yl)-2-cyclopropylethanone], for which the AC50 (24 hrs compound incubation) was 1 to 5 µM. With `O=C(c1scnc1Cl)N1CCc2[nH]cnc2[C@@H]1c1nc2c(F)cccc2s1` [Example 1639, (R)-(4-chlorothiazol-5-yl)(4-(4-fluorobenzo[d]thiazol-2-yl)-6,7-dihydro-1H-imidazo[4,5-c]pyridin-5(4H)-yl)methanone], the AC50 (24 hrs compound incubation) lay in the range of 1 to 5 µM.

Turning to `CC(O)(c1nc(C(F)(F)F)c(C(=O)N2CCc3[nH]cnc3[C@H]2c2nc3ccccc3s2)o1)C1CC1` (single isomer, unassigned) [Example 1561], the AC50 (24 hrs compound incubation) was < 0.5 µM.

In the case of `COCCc1ccc2c(C(=O)N3CCc4[nH]cnc4[C@H]3c3nc4ccccc4s3)cnn2c1` [Example 1451], the AC50 (24 hrs compound incubation) was < 0.5 µM. For the molecule `O=C(c1cnn2cccc(F)c12)N1CCc2[nH]cnc2C1c1nc2ccc(F)cc2s1` (stereo not shown), the AC50 (24 hrs with compound) lay in the range of 1 to 5 µM.

On to `O=C(Cc1cnco1)N1CCc2[nH]cnc2C1c1nc2ccccc2s1` (stereo not shown), for which the AC50 (24 hrs with compound) lay within 1 to 5 µM. The same measure, in the same setting: the value for `O=C(CCc1cncs1)N1CCc2[nH]cnc2[C@H]1c1nc2ccccc2[nH]1` [(S)-1-(4-(1H-benzo[d]imidazol-2-yl)-1,4,6,7-tetrahydro-5H-imidazo[4,5-c]pyridin-5-yl)-3-(thiazol-5-yl)propan-1-one] was > 5 µM.

Take `O=C(CCc1ccncc1)N1CCc2[nH]cnc2C1c1nc2ccccc2[nH]1` (stereo not shown): the AC50 (24 hrs with compound) was > 5 µM. For the molecule `CN1CCN(c2nc(C(F)(F)F)c(C(=O)N3CCc4[nH]cnc4[C@H]3c3nc4c(F)cccc4s3)o2)CC1` [Example 1623, (S)-(4-(4-fluorobenzo[d]thiazol-2-yl)-6,7-dihydro-1H-imidazo[4,5-c]pyridin-5(4H)-yl)(2-(4-methylpiperazin-1-yl)-4-(trifluoromethyl)oxazol-5-yl)methanone], the AC50 (24 hrs compound incubation) was < 0.5 µM. As for `Cc1ncsc1C(=O)N1CCc2[nH]cnc2C1c1nc2ccccc2s1` (stereo not shown), the AC50 (24 hrs with compound) was > 5 µM. For the molecule `CC(C)(O)c1nc(Cl)c(C(=O)N2CCc3[nH]cnc3[C@@H]2c2nc3c(F)cccc3s2)s1` [Example 2088, (R)-(4-chloro-2-(2-hydroxypropan-2-yl)thiazol-5-yl)(4-(4-fluorobenzo[d]thiazol-2-yl)-6,7-dihydro-1H-imidazo[4,5-c]pyridin-5(4H)-yl)methanone], where the note is “24 hrs compound incubation”, the AC50 lay within 1 to 5 µM. As to `O=C(c1ccon1)N1CCc2[nH]cnc2[C@H]1c1nc2ccc(Br)cc2[nH]1` [Example 981, (S)-(4-(6-bromo-1H-benzo[d]imidazol-2-yl)-6,7-dihydro-1H-imidazo[4,5-c]pyridin-5(4H)-yl)(isoxazol-3-yl)methanone], for the setting “24 hrs compound incubation”, the AC50 was < 0.5 µM.

As a reminder, the AC50 is the midpoint of the concentration-response curve, whichever way the signal moves.
